From US11286278B2, “DPEP-1 binding agents and methods of use” (Arch Biopartners, Inc., priority 2018, dated 2022)
“Also recorded” adds a separate entry of the source. Ends that are not written are not given here.

How the values were obtained:
[1] = test system: serum cytokines; assay: Plasma cytokine levels after LPS, Luminex Cytokine Arrays; format: in vivo, mouse; details: SCID mice, LPS 0.5 mg/kg i.p., 4 hours
Method: 6-8 weeks old SCID mice were given an intraperitoneal injection of LPS (0.5 mg/kg) 5 minutes prior to intravenous injection of LSALT peptide or a control peptide. 4 hours following injection of LPS, blood was collected by cardiac puncture and changes in plasma cytokine levels were assessed using Luminex Cytokine Arrays. Bar graphs show the levels of different inflammatory mediators released in the plasma in the presence or absence of LSALT peptide and control peptide.
6-8 weeks old SCID mice were given an intraperitoneal injection of LPS (0.5 mg/kg) 5 minutes prior to intravenous injection of LSALT peptide or a control peptide. 4 hours following injection of LPS, blood was collected by cardiac puncture and changes in plasma cytokine levels were assessed using Luminex Cytokine Arrays. Bar graphs show the level of the anti-inflammatory cytokine IL-10 released in the plasma in LSALT peptide or control peptide in two independent experiments.

[2] = test system: neutrophil adhesion in the hepatic sinusoids; assay: Neutrophil adhesion in hepatic sinusoids after LPS, intravital microscopy; format: in vivo, mouse; details: LysM gfp mice, LPS 0.5 mg/kg i.p., peptide 1 mM i.v.
Method: Six to ten week old LysM^(gfp) mice were injected with 1 mM dose of LSALT or 1KGAL (control) (intravenous) 5 minutes after the injection of 0.5 mg/kg of lipopolysaccharide (intraperitoneal). After 3 hours, animals were injected with ketamine and xylazine to provide general anesthesia. Fluorescently conjugated F4/80 and PECAM-1 antibodies were then administered via jugular vein cannulation and intravital spinning disk confocal microscopy was performed. The livers were imaged for an hour and the number of neutrophils were counted at different time points. Neutrophils which were stationary for ≥30 seconds in the liver sinusoids were counted as adherent cells. Data are representative of three independent experiments. An unpaired 2-tailed student's t-test was performed comparing LSALT, […] control treated group against the LPS treated group (*p<0.05).

[3] = biological target: T1, renal rat membrane dipeptidase (DPEP-1) (Rattus norvegicus, UniProt P31430); assay: Binding of Alexa-488 conjugated peptides to Cos-7 cells transfected with renal rat membrane dipeptidase; details: Alexa-488 conjugate, on ice 30 minutes
T1 construct: expressed in transfected cells; host or cells: Cos-7
T1 sequence (P31430 17-384): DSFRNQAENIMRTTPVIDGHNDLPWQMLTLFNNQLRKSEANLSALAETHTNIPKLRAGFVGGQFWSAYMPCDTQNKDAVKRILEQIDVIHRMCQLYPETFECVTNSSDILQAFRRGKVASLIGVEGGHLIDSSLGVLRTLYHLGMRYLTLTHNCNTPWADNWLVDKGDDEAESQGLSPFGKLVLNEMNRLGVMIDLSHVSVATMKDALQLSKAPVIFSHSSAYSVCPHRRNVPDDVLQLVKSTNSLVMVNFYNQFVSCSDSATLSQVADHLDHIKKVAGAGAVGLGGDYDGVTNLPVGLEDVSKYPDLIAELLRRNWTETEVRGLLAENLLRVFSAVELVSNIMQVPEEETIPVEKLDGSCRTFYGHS
Method: Cells were incubated with LSALT or GFE-1 conjugated with Alexa-488 (Green), or control peptide conjugated with Alexa-488 (Green) on ice for 30 minutes. Cells were washed and fixed using 4% paraformaldehyde and immunofluorescence microscopy was performed to assess binding. Shown are representative photomicrographs of each experimental condition (n=2).
48 hours after transfection, cells were incubated with LSALT conjugated to Alexa-488 (green) on ice for 30 minutes. Cells were washed and flow cytometry was performed to assess binding. Shown are single parameter histographs for each experimental condition (n=2).

[4] = biological target: T2, DPEP1 (Homo sapiens, UniProt P16444); assay: Immunofluorescence binding of Alexa-488 conjugated peptides to Cos-1 cells transfected with human DPEP-1; parameters: expressed in transfected cells; host or cells: Cos-1; details: Alexa-488 conjugate, on ice 30 minutes
T2 sequence (P16444 17-385): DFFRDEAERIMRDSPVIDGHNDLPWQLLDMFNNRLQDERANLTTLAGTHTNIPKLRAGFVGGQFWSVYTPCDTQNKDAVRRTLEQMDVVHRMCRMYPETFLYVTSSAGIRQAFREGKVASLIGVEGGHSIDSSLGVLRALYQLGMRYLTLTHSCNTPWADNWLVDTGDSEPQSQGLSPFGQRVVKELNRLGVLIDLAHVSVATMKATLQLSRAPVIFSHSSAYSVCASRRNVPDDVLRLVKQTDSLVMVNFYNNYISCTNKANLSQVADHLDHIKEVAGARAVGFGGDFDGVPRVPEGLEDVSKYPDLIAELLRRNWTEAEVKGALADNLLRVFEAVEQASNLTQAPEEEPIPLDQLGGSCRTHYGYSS
Method: 24 hours after transfection, DPEP-1 expressing cells weer reseeded on 24 well collagen coated (neutralized) plates and allowed to grow for 24 hours at 37° C. […] Cells were blocked with FBS/NBSA/Tween in PBS for 30 minutes on ice. Cells were then washed with PBS and incubated with Alexa-488 (green) conjugated LSALT, GFE-1, control peptide or DPEP-1 antibody ( 1/100) (Sigma) on ice for 30 minutes. After incubation, cells were washed with PBS and stained with DAPI for 4 minutes on ice. Cells were again washed with PBS, fixed using 4% paraformaldehyde and immunofluoresence microscopy was performed to assess binding. Proteins from human DPEP-1 transfected cells were isolated after 48 hours using octyl-glucoside/RIPA in the absence of protease inhibitors. […] Values shown are the mean ±s.e.m. from six independent experiments; asterisks (***) indicate P<0.001 as compared with DPEP-1 transfected cells (one-way ANOVA with the Neuman-Keuls post-test)[…]. Proteins from transfected cells were isolated after 48 hours using octyl-glucoside/RIPA lysis buffer and western blot analysis was performed to assess DPEP-1 expression using DPEP-1 antibody (Sigma). […]

With H-LSALTPSPSWLKYKAL [LSALT] the “levels of serum cytokines in response to LPS” value [1] was “attenuates the levels of a number of different serum cytokines”, the “plasma IL-10 in response to LPS” value [1] was “increases the production of the anti-inflammatory mediator IL-10” and the “neutrophil adhesion in the hepatic sinusoids” value [2] was “inhibits neutrophil adhesion in the hepatic sinusoids”. For the same substance, the “binding to Cos-7 cells on DPEP-1 expression, flow cytometry” value [3] was “Enhanced the Binding”, the “binding to Cos-7 cells on DPEP-1 expression, immunofluorescence microscopy” value [3] was “Enhanced the Binding” and the “binding of fluorescently labelled peptide to human DPEP-1 transfected Cos-1 cells” value [4] was “Binds; also recorded: Fluorescent peptide binding is only seen with DPEP1 transfection”.
